From patent US10799467B2, “Use of the phytocannabinoid cannabidivarin (CBDV) in the treatment of epilepsy” (GW Pharma Limited, priority 2010, dated 2020)

Legend:
PTZ-induced seizures = experiment: PTZ model of generalised seizures (80 mg/kg PTZ); assay type: in vivo, Wistar rats; settings: for proportion of animals that died / proportion of animals reaching tonic-clonic seizures: vehicle 8 of 15
Experimental: Male Wistar rats (P24-29; 75-110 g) were used to assess the effects of the phytocannabinoid CBDV in the PTZ model of generalised seizures. Animals were habituated to the test environment, cages, injection protocol and handling prior to experimentation. Animals were housed in a room at 21° C. on a 12 hour light: dark cycle (lights on 0900) in 50% humidity, with free access to food and water.
Five 6 L Perspex tanks with lids were placed on a single bench with dividers between them. Closed-circuit television (CCTV) cameras were mounted onto the dividers to observe rat behaviour. Sony Topica CCD cameras (Bluecherry, USA) were linked via BNC cables to a low-noise PC via Brooktree digital capture cards (Bluecherry, USA). Zoneminder (http://www.zoneminder.com) software was used to monitor rats, start and end recordings and manage video files. In-house Linux scripts were used to encode video files into a suitable format for further offline analysis using The Observer (Noldus Technologies).
A range of doses of PTZ (50-100 mg/kg body weight) were used to determine the best dose for induction of seizures (see below). As a result, a dose of 80 mg/kg injected intra-peritoneally (IP; stock solution 50 mg/ml in 0.9% saline) were used to screen the CBDV.
On the day of testing, pure CBDV was administered via intra-peritoneal (i.p.) injection at doses of 50, 100 and 200 mg/kg alongside animals that were injected with a matched volume of the cannabinoid vehicle (2:1:17 ethanol:Cremophor: 0.9% w/v NaCl solution), which served as the negative control group. Animals were then observed for 1 hour, after which time they received an IP injection of 80 mg/kg PTZ. Negative vehicle controls were performed in parallel with cannabinoid-dosed subjects. After receiving a dose of PTZ, animals were observed and videoed to determine the severity of seizure and latency to several seizure behaviour types (see in vivo analysis, below). Animals were filmed for half an hour after last sign of seizure, and then returned to their cage.
Animals were observed during experimental procedures, but all analysis was performed offline on recorded video files using The Observer behavioural analysis software (Noldus, Netherlands). A seizure severity scoring system was used to determine the levels of seizure experienced by subjects (Pohl & Mares, 1987). All signs of seizure were detailed for all animals.
The latency (in seconds) from injection of PTZ to first myoclonic jerk (FMJ; score of 1), and to the animal attaining “forelimb clonus with tonic component and body twist” (score of 3.5) were recorded. FMJ is an indicator of the onset of seizure activity, whilst >90% of animals developed scores of 3.5, and so is a good marker of the development of more severe seizures. Data are presented as the mean±S.E.M. within an experimental group.
This is given as the median value for each experimental group based on the scoring scale below.
The percentage of animals within an experimental group that died as a result of PTZ-induced seizures. Note that the majority of animals that developed tonic-clonic seizures (scores of 4 and 5) died as a result, and that a score of 6 (death) automatically denotes that the animal also experienced tonic-clonic seizures.
This is given as the mean±S.E.M. for each experimental group.
For measures of latency and severity, one way analysis of variance (ANOVA) was performed on the four groups together (vehicle and 50, 100 and 200 mg/kg CBDV) to detect overall effects of CBDV (p≤0.05 considered significant).
Significant ANOVA results were followed by post hoc tests to test differences between vehicle and drug groups (Tukey's test, p≤0.05 considered significant).
Methodology as described in Example 2.
General methodology is as described in Example 2.
Three doses of THCV BDS were assessed against a concentration of PTZ known to induce moderate seizures in rats (70 mg/kg; see pilot, above). […]

[1] = Observation of side effects in all experiments with isolated CBDV and CBDV BDS; assay type: in vivo; settings: all experiments using isolated CBDV and CBDV BDS
[2] = test system: epileptiform burst activity in hippocampal slices (4-AP model); experiment: 4-AP in vitro epileptiform model in hippocampal brain slices (multi-electrode array); assay type: cell-based, Wistar rats
Experimental: Use of isolated CBDV in two in vitro epileptiform models in hippocampal brain slices
Hippocampal slices were produced acutely from P>21 Wistar rats and activity recorded by multi-electrode arrays (MEA).
To induce epileptiform activity, either Mg^2+ was removed (Mg^2+-free model) or 100 μM 4-aminopyridine was added (4-AP model). 30 min after epileptiform burst activity was established, CBDV was added cumulatively (1, 10, 100 μM; 30 min each).
The effects of CBDV on epileptiform burst amplitude and duration were measured (Table 2.1).

Compound: C=C(C)[C@@H]1CCC(C)=C[C@H]1c1c(O)cc(CCC)cc1O [CBDV, Cannabidivarin]
- proportion of animals that died (PTZ-induced seizures; 100 mg/kg CBDV i.p., 80 mg/kg PTZ, p=0.002): 1 out of 15
- proportion of animals reaching tonic-clonic seizures (PTZ-induced seizures; 100 mg/kg CBDV i.p., 80 mg/kg PTZ, p=0.036): 4 of 15
- latency to seizure onset vs vehicle (PTZ-induced seizures; 200 mg/kg CBDV i.p. 1 hour before 80 mg/kg PTZ, p=0.03): significantly higher
- median seizure severity vs vehicle (PTZ-induced seizures; 200 mg/kg CBDV i.p., 80 mg/kg PTZ, p=0.014): significantly lower
- latency to clonic seizures vs vehicle (PTZ-induced seizures; 200 mg/kg CBDV i.p., 80 mg/kg PTZ, p=0.032): significant increase
- animals that experienced no seizure at all (PTZ-induced seizures; 200 mg/kg CBDV i.p., 80 mg/kg PTZ, vehicle 1 of 15, p=0.003): 5 of 15
- proportion of animals that died (PTZ-induced seizures; 200 mg/kg CBDV i.p., 80 mg/kg PTZ, p<0.001): 2 out of 15
- proportion of animals reaching tonic-clonic seizures (PTZ-induced seizures; 200 mg/kg CBDV i.p., 80 mg/kg PTZ, p=0.01): 3 of 15
- latency to tonic-clonic seizures (PTZ-induced seizures; overall or at any specific dose (50, 100, 200 mg/kg CBDV i.p.), 80 mg/kg PTZ): No significant effect
- notable side effects [1]: did not exhibit any notable side effects
- Burst amplitude (% of control) CA1 ([2]; CBDV 1 μM): 89.3 ± 5.6 % of control
- Burst duration (% of control) CA1 ([2]; CBDV 1 μM): 104.3 ± 8.0 % of control
- Burst amplitude (% of control) CA3 ([2]; CBDV 1 μM): 103.0 ± 5.8 % of control
- Burst duration (% of control) CA3 ([2]; CBDV 1 μM): 91.0 ± 6.0 % of control
- Burst amplitude (% of control) DG ([2]; CBDV 1 μM): 94.2 ± 3.0 % of control
- Burst duration (% of control) DG ([2]; CBDV 1 μM): 95.7 ± 5.9 % of control
- Burst amplitude (% of control) CA1 ([2]; CBDV 10 μM): 88.3 ± 5.2 % of control
- Burst duration (% of control) CA1 ([2]; CBDV 10 μM): 85.9 ± 6.2 % of control
- Burst amplitude (% of control) CA3 ([2]; CBDV 10 μM): 121.9 ± 17.0 % of control
- Burst duration (% of control) CA3 ([2]; CBDV 10 μM): 82.5 ± 4.8 % of control
- Burst amplitude (% of control) DG ([2]; CBDV 10 μM): 91.2 ± 4.9 % of control
- Burst duration (% of control) DG ([2]; CBDV 10 μM): 83.8 ± 4.4 % of control
- Burst amplitude (% of control) CA1 ([2]; CBDV 100 μM): 89.5 ± 5.3 % of control
- Burst duration (% of control) CA1 ([2]; CBDV 100 μM): 85.9 ± 5.8 % of control
- Burst amplitude (% of control) CA3 ([2]; CBDV 100 μM): 110.3 ± 7.0 % of control
- Burst duration (% of control) CA3 ([2]; CBDV 100 μM): 79.7 ± 5.4 % of control
- Burst amplitude (% of control) DG ([2]; CBDV 100 μM): 95.9 ± 4.3 % of control
- Burst duration (% of control) DG ([2]; CBDV 100 μM): 83.4 ± 4.1 % of control
